Results as given in US20230339902A1, “TRICYCLIC LIGANDS FOR DEGRADATION OF IKZF2 OR IKZF4” (C4 Therapeutics, Inc., priority 2020, published 2023).
Read-outs that look alike come from different tables or passages of the source.

How the values were obtained:
[1] = target: T1, GSPT1 (Homo sapiens, UniProt P15170+Q96SW2); experiment: GSPT1 degradation assay, HiBiT method (Nano-Glo HiBiT Lytic Assay); assay type: cell-based; details: 293T.114 (HiBiT-GSPT1) cells, 6 hours
T1 construct: endogenously expressing GSPT1 with HiBiT fusion tag via CRISPR; endogenous in cells; host or cells: 293T.114 (HiBiT-GSPT1), CRISPR knock-in, generated in house
T1 sequence (P15170 whole entry, the tested form may be a part): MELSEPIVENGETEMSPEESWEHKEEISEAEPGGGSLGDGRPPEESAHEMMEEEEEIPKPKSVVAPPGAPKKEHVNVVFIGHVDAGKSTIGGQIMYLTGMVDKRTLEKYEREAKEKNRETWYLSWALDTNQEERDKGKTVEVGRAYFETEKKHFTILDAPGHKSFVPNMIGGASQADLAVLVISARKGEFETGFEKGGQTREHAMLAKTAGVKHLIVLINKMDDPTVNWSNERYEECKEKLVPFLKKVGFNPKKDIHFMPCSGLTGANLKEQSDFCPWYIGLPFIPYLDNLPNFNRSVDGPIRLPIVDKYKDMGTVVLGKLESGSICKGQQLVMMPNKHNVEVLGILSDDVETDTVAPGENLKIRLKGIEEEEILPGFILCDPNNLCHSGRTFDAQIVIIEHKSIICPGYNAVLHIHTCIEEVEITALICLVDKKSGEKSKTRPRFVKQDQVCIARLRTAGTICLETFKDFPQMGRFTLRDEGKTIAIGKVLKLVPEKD
T1 sequence (Q96SW2 whole entry, the tested form may be a part): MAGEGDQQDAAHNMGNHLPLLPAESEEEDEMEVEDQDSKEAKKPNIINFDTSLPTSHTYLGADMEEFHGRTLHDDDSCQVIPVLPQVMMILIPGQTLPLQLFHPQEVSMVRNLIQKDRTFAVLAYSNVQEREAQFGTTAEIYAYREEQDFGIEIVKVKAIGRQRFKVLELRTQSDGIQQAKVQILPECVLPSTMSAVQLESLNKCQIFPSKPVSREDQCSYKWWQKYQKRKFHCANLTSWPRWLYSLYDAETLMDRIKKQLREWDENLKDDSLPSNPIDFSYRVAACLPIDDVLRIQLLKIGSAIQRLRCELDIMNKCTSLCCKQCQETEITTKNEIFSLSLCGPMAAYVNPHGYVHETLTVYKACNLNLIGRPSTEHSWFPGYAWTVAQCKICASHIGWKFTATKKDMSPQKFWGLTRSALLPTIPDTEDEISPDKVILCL
T1 sequence (Q16531 whole entry partner, the tested form may be a part): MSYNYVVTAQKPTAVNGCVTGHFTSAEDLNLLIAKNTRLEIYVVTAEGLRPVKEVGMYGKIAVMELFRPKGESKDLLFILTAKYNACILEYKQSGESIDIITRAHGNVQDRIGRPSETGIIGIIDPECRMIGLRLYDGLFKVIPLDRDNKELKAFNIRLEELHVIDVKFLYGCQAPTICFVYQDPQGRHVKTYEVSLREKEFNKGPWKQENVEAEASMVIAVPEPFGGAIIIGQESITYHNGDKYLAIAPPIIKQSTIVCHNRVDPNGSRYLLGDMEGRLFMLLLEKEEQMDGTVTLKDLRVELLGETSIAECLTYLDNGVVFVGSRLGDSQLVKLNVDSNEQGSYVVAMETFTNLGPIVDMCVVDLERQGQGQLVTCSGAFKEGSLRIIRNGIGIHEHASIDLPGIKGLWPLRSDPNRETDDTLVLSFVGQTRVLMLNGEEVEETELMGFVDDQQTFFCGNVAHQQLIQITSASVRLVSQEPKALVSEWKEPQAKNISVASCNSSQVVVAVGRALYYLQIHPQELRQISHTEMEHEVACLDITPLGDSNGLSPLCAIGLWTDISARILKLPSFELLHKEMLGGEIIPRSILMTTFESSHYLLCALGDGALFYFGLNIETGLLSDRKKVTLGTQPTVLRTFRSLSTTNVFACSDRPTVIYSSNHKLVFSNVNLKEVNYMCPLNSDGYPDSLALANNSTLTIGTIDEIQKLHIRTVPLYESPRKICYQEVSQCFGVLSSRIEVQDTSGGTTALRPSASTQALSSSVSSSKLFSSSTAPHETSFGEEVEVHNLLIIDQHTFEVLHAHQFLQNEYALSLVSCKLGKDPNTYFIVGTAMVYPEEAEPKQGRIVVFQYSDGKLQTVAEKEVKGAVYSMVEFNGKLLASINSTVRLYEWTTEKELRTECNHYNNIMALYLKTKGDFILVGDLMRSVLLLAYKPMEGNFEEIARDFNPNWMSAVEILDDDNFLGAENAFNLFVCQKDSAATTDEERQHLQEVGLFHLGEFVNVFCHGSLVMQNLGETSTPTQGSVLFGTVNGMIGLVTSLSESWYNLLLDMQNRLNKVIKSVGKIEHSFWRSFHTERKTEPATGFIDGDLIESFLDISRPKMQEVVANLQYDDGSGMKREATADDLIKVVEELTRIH
Method: Example 62 GSPT1 Degradation Assay
DMEM no-phenol red medium and fetal bovine serum (FBS) were purchased from Gibco (Grand Island, NY, USA). Nano-Glo® HiBiT Lytic Assay System was purchased from Promega (Madison, WI, USA). 293T.114 (HiBiT-GSPT1) cell line was generated in house, endogenously expressing GSPT1 with HiBiT fusion tag via CRISPR. Cell culture flasks and 384-well microplates were acquired from VWR (Radnor, PA, USA).
GSPT1 Degradation Analysis
(§1) GSPT1 degradation was determined based on quantification of luminescent signal using Nano-Glo® HiBiT Lytic Assay kit. Test compounds were added to the 384-well plate from a top concentration of 10 µM with 11 points, half log titration in duplicates. 293T.114 cells were added into 384-well plates at a cell density of 6000 cells per well. The plates were kept at 37° C. with 5% CO2 for 6 hours. The cells treated in the absence of the test compound were the negative control and the cells without Nano-Glo® HiBiT Lytic reagent were the positive control. After 6-hour incubation, Nano-Glo® HiBiT Lytic Assay reagents were added to the designated wells. Luminescence was acquired on EnVision™ Multilabel Reader (PerkinElmer, Santa Clara, CA, USA).

[2] = target: T2, IKZF2 (Homo sapiens, UniProt Q96SW2+Q9UKS7); experiment: IKZF2 degradation assay, HiBiT method (Nano-Glo HiBiT Lytic Assay); assay type: cell-based; details: JURKAT.21 (IKZF2-HiBiT) cells
T2 construct: endogenously expressing IKZF2 with HiBiT fusion tag via CRISPR; host or cells: JURKAT.21 (IKZF2-HiBiT), CRISPR knock-in
T2 sequence (Q9UKS7 whole entry, the tested form may be a part): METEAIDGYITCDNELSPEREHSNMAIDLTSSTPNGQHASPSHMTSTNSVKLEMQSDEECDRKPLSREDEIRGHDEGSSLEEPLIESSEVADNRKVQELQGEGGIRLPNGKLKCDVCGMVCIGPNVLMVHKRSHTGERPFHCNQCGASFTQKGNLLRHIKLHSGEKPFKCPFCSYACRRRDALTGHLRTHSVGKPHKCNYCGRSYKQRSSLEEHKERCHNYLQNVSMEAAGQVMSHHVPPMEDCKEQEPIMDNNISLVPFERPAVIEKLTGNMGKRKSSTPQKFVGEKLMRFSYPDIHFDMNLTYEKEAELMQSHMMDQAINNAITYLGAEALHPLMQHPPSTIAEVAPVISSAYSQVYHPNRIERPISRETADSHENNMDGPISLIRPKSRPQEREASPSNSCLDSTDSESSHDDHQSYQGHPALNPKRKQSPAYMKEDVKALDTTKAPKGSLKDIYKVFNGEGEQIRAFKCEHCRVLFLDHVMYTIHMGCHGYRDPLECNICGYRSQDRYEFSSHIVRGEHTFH
T2 sequence (Q96SW2 whole entry, the tested form may be a part): as the sequence (Q96SW2 whole entry, the tested form may be a part) above
T2 sequence (Q16531 whole entry partner, the tested form may be a part): as the sequence (Q16531 whole entry partner, the tested form may be a part) above
Description: Example 61 IKZF2 Degradation Assay
RPMI 1640 Medium without phenol red and fetal bovine serum (FBS) were purchased from Gibco (Grand Island, NY, USA). Nano-Glo® HiBiT Lytic Assay System was purchased from Promega (Madison, WI, USA). JURKAT.21 (IKZF2-HiBiT) cell line, endogenously expressing IKZF2 with HiBiT fusion tag via CRISPR, was purchasing from Synthego (Menlo Park, CA, USA). Cell culture flasks and 384-well microplates were acquired from VWR (Radnor, PA, USA).
IKZF2 Degradation Analysis
as §1, with “IKZF2” for “GSPT1”, “JURKAT.216” for “293T.114”, “5000” for “6000”, “6 or 24” for “6”, “6-hour or 24-hour” for “6-hour”, “cells.” for “designated wells.”

[3] = 6 hours, read-out: HiBiT-Degradation JURKAT.21 IKZF2 6 hours DC50
[4] = 6 hours, read-out: HiBiT-Degradation JURKAT.21 IKZF2 6 hours Emax

In the case of `O=C1CCC(N2C(=O)c3ccc(C4(F)CCN(Cc5ccccc5)CC4)c4nccc2c34)C(=O)N1` (centres unmarked) [Compound 123, 3-[18-(1-benzyl-4-fluoro-4-piperidyl)-24-oxo-27,30-diazatricyclododeca-5(17),6(18),7(19),8(27),20-pentaen-30-yl]piperidine-2,6-dione], the DC50 [1] is reported as greater than 10 µM and the Emax [1] is reported as 60 to 95%.

Compound `CN(c1ccc2c3c(cccc13)N(C1CCC(=O)NC1=O)C2=O)C1CCN(Cc2ccccc2)C1` (centres unmarked) [Compound 116] has a DC50 [1] greater than 10 µM and an Emax [1] of 60 to 95%.

Compound `COc1ncc(CN2CCC(c3ccc4c5c(ccnc35)N(C3CCC(=O)NC3=O)C4=O)CC2)cn1` (centres unmarked) [Compound 127, 3-[14-[1-[(2-methoxypyrimidin-5-yl)methyl]-4-piperidyl]-24-oxo-26,31-diazatricyclododeca-1(14),2(15),3(16),4(26),18-pentaen-31-yl]piperidine-2,6-dione] has a DC50 [2, 3] greater than 10 µM, an Emax [2, 4] of 60 to 95% and a DC50 [1] greater than 10 µM. The Emax [1] was greater than 95%.

`O=C1CCC(N2C(=O)c3ccc(N4CCN(Cc5ccccc5)CC4)c4cccc2c34)C(=O)N1` (centres unmarked) [Compound 115] was tested, and the DC50 [2, 3] was greater than 10 µM and the Emax [2, 4] was 60 to 95%.

Work on `COc1ccccc1C(C)NC(=O)c1ccc2c3c(cccc13)N(C1CCC(=O)NC1=O)C2=O` (centres unmarked) [Compound 109, 1-(2,6-dioxopiperidin-3-yl)-N-(1-(2-methoxyphenyl)ethyl)-2-oxo-1,2-dihydrobenzo[cd]indole-5-carboxamide] yielded a DC50 [1] greater than 10 µM and an Emax [1] of 60 to 95%.

In the case of `CN1CCN(c2ccc3c4c(ccnc24)N(C2CCC(=O)NC2=O)C3=O)CC1` (centres unmarked) [Compound 121], the DC50 [2, 3] is reported as greater than 10 µM, the Emax [2, 4] is reported as greater than 95% and the DC50 [1] is reported as greater than 10 µM. For the same compound, the Emax [1] was 60 to 95%.

`O=C1CCC(N2C(=O)c3ccc(C4(F)CCN(Cc5ccccc5)CC4)c4cccc2c34)C(=O)N1` (centres unmarked) [Compound 96, 3-[5-(1-benzyl-4-fluoro-4-piperidyl)-2-oxo-benzo[cd]indol-1-yl]piperidine-2,6-dione] was tested, and the DC50 [2, 3] was greater than 10 µM, the Emax [2, 4] was 60 to 95% and the DC50 [1] was greater than 10 µM. For the same compound, the Emax [1] was 60 to 95%.

With `Cc1cc(C)nc(-c2ccc3c4c(cccc24)N(C2CCC(=O)NC2=O)C3=O)n1` (centres unmarked) [Compound 106, 3-[5-(4,6-dimethylpyrimidin-2-yl)-2-oxo-benzo[cd]indol-1-yl]piperidine-2,6-dione] the DC50 [2, 3] was less than 0.5 µM, the Emax [2, 4] was 45 to 60% and the DC50 ([2]; 24 hours, read-out: HiBiT-Degradation JURKAT.21 IKZF2 24 hours DC50) was less than 0.5 µM. For the same compound, the Emax ([2]; 24 hours, read-out: HiBiT-Degradation JURKAT.21 IKZF2 24 hours Emax) was less than 45%, the DC50 [1] was greater than 10 µM and the Emax [1] was 60 to 95%.

With `O=C1CCC(N2C(=O)c3ccc(C4CCN(Cc5ccccc5)C4)c4cccc2c34)C(=O)N1` (centres unmarked) [Compound 99] the DC50 [2, 3] was greater than 10 µM, the Emax [2, 4] was 60 to 95% and the DC50 [1] was greater than 10 µM. The Emax [1] was greater than 95%.

In the case of `O=C1CCC(N2C(=O)c3ccc(C(=O)NC(c4ccccc4)C(F)(F)F)c4cccc2c34)C(=O)N1` (centres unmarked) [Compound 110, 1-(2,6-dioxopiperidin-3-yl)-2-oxo-N-(2,2,2-trifluoro-1-phenylethyl)-1,2-dihydrobenzo[cd]indole-5-carboxamide], the DC50 [2, 3] is reported as greater than 10 µM and the Emax [2, 4] is reported as 60 to 95%.

`O=C1CCC(N2C(=O)c3ccc(C4CCN(Cc5ccccc5)CC4)c4nccc2c34)C(=O)N1` (centres unmarked) [Compound 126, 3-[17-(1-benzyl-4-piperidyl)-25-oxo-27,30-diazatricyclododeca-5(17),6(18),7(19),8(27),20-pentaen-30-yl]piperidine-2,6-dione] was tested, and the DC50 [2, 3] was greater than 10 µM and the Emax [2, 4] was 60 to 95%.

In the case of `O=C1CCC(N2C(=O)c3ccc(OC4CCCC[C@@H]4N4CC(Oc5cccc(F)c5)C4)c4cccc2c34)C(=O)N1` (stereo in doubt) [Compound 117, 3-[5-[(1R)-2-[3-(3-fluorophenoxy)azetidin-1-yl]cyclohexoxy]-2-oxo-benzo[cd]indol-1-yl]piperidine-2,6-dione], the DC50 [2, 3] is reported as greater than 10 µM and the Emax [2, 4] is reported as 60 to 95%.

`CN1CCN(c2ccc3c4c(cccc24)N(C2CCC(=O)NC2=O)C3=O)CC1` (centres unmarked) [Compound 114, 3-[5-(4-methylpiperazin-1-yl)-2-oxo-benzo[cd]indol-1-yl]piperidine-2,6-dione] gave a DC50 [1] greater than 10 µM and an Emax [1] of 60 to 95%.
